We go through 20 compounds from patent US20230373972A1, “PIPERAZINE DERIVATIVE, PREPARATION METHOD THEREFOR AND USE THEREOF” (Zhejiang Hisun Pharmaceutical Co., Ltd., priority 2020, published 2023).

The subject of one assay is human plasma. Description: In-vitro anticoagulation on human plasma (APTT kit, coagulation time). The conditions noted are these: concentration of the compound when the coagulation time (APTT) was prolonged twice. Here is the method:
The following method was used to determine the in-vitro anticoagulation of the compound of the present invention in the human plasma. In the method, an APTT kit of the MediRox company was used to test. The APTT kit was purchased from MediRox (article number MRX930), and the human plasma was prepared internally.
The preparation of the human plasma was briefly described as follows: human plasma was collected in a blood collection tube containing sodium citrate, and centrifuged at 3,000 rpm for 10 minutes at room temperature, and plasma was collected, and packaged separately and stored at −80° C.
An APTT test process was briefly described as follows: a test compound was dissolved in DMSO to prepare a 10 mM storage solution first, then the test compound was diluted with DMSO by a triple gradient, and a final concentration of the test compound in a reaction system ranged from 217 μM to 0.03 μM. 4 μL, of test compounds at different concentrations diluted with DMSO were added to a centrifuge tube containing 180 μL of plasma, and 4 μL of DMSO was added to a blank group, shaken and mixed evenly, and incubated at 37° C. for 5 minutes. Subsequently, an APTT reagent was placed in a reagent holder according to instrument requirements, the incubated plasma sample was placed in a detection position of a coagulation analyzer, and a coagulation time was determined and recorded (s). With a final concentration of the compound as an abscissa and Ratio (Ratio=TiT0, wherein T0 was a coagulation time of a blank control, and Ti was a coagulation time of a compound to be tested) as an ordinate, a coagulation dose-effect curve was drawn by Graph Pad Prisms, and a concentration of the compound when the coagulation time was prolonged twice was calculated, which was namely a CT2 value, as shown in Table 2.

Assay [1] concerns the target T1, Native human Factor XIa protease (Homo sapiens, UniProt P03951).
T1 construct: The Native human Factor XIa protease was purchased from Abcam; purchased Abcam ab62411
Kind of assay: Inhibition of activity of Factor XIa protease (chromogenic substrate S-2366). The conditions noted are these: S-2366 1 mM, 37° C. 10 minutes, absorption at 405 nm. The assay is classed as biochemical. From the text:
The following method was used to determine an inhibition degree of the compound of the present invention on an activity of Native human Factor XIa protease in vitro. In the method, a Factor XIa chromogenic substrate was used to test the inhibition degree on the activity of the Factor XIa protease. The Native human Factor XIa protease was purchased from Abcam (article number ab62411), and S-2366 was purchased from Chromogenix (article number 82109039). An experimental process was briefly described as follows: a test compound was dissolved in DMSO to prepare a 10 mM storage solution first, then the compound was diluted with a Factor XIa reaction buffer (100 mM Tris-HCl, 200 mM NaCl, 0.02% Tween 20, pH 7.4) by a quadruple gradient, and a final concentration of the test compound in a reaction system ranged from 10,000 nM to […]. The reaction was carried out in a 384-well microplate. 2 μL of the test compounds at different concentrations diluted with the reaction buffer were added to wells first, and 2 μL of 1% DMSO (a final concentration of DMSO in the reaction system was 0.1%) was used to replace blank and control wells. Subsequently, 8 μL of enzyme working solution (a final concentration of Factor XIa was […]) was added to each well, and 8 μL of Factor XIa reaction buffer was used to replace the blank well, centrifuged for 30 seconds, and incubated on ice for 5 minutes. Finally, 10 μL of substrate working solution (a final concentration of S-2366 was 1 mM) was added to each well, and centrifuged for 30 seconds, and the reaction was started. The solution was incubated at 37° C. for 10 minutes to determine a light absorption value at 405 nm. By comparing with a light absorption value of the control group (0.1% DMSO), a percentage inhibition rate of the compound at each concentration was calculated, and nonlinear regression analysis was carried out on value-inhibition rate with the concentration of the compound by GraphPad Prism 5 software, so as to obtain an IC50 value of the compound, as shown in Table 1.

T1 sequence (P03951 388-625 limits assumed): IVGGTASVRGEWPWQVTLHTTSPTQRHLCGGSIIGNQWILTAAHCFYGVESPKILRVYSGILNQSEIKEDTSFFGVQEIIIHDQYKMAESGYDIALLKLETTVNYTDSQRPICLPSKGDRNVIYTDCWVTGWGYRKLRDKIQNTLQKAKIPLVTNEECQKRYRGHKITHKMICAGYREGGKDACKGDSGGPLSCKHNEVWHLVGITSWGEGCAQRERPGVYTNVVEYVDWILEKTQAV
T1 sequence (P03951 19-387 partner limits assumed): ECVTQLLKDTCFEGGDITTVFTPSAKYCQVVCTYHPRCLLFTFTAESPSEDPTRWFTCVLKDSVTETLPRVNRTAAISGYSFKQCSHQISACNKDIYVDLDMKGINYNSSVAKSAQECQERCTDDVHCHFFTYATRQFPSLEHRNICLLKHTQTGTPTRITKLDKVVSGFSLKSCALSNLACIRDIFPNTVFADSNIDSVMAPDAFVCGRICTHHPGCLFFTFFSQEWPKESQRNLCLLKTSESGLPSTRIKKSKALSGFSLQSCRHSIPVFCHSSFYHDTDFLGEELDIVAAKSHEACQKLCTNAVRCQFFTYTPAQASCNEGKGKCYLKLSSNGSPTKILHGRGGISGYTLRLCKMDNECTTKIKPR

What is called IC50 is the concentration that gives 50% inhibition. A high value points to weaker potency. On to `COC(=O)Nc1ccc(NC(=O)C(Cc2ccccc2)N2CC(=O)N(c3cc(Cl)ccc3-n3cnnn3)CC2=O)cc1` (stereo not drawn) [Example 2, Methyl (4-(2-(4-(5-chloro-2-(1H-tetrazol-1-yl)phenyl)-2,5-dioxopiperazin-1-yl)-3-phenylpropanamido)phenyl)carbamate], for which, in the assay on human plasma, the “CT2” value turned out to be 12.6 µM. In addition, the IC50 in assay [1] amounted to 44.9 nM.
The like results for `NC(=O)c1ccc(NC(=O)C(Cc2ccccc2)N2CC(=O)N(c3cc(Cl)ccc3-n3cnnn3)CC2=O)cc1` (stereo not drawn) [Example 3, 4-(2-(4-(5-Chloro-2-(1H-tetrazol-1-yl)phenyl)-2,5-dioxopiperazin-1-yl)-3-phenylpropanamido)benzamide] were, in that order, 6.6 µM and 36.7 nM.
The like results for `COC(=O)c1ccc(NC(=O)C(Cc2ccccc2)N2CC(=O)N(c3cc(Cl)ccc3-n3cnnn3)CC2=O)cc1` (stereo not drawn) [Example 5, Methyl 4-(2-(4-(5-Chloro-2-(1H-tetrazol-1-yl)phenyl)-2,5-dioxopiperazin-1-yl)-3-phenylpropanamido)benzoate] were, in that order, 17.8 µM and 29.9 nM.
Take `CNC(=O)c1ccc(NC(=O)C(Cc2ccccc2)N2CC(=O)N(c3cc(Cl)ccc3-n3cnnn3)CC2=O)cc1` (stereo not drawn) [Example 6, 4-(2-(4-(5-Chloro-2-(1H-tetrazol-1-yl)phenyl)-2,5-dioxopiperazin-1-yl)-3-phenylpropanamido)-N-methylbenzamide]: in the assay with human plasma, the “CT2” value is 4.9 µM. Besides, in assay [1], 34.6 nM corresponded to half-maximal inhibition (IC50).
In the case of `O=C1NCc2cc(NC(=O)C(Cc3ccccc3)N3CC(=O)N(c4cc(Cl)ccc4-n4cnnn4)CC3=O)ccc21` (stereo not drawn) [Example 7, 2-(4-(5-Chloro-2-(1H-tetrazol-1-yl)phenyl)-2,5-dioxopiperazine-1-yl)-N-(1-oxoisoindolin-5-yl)-3-phenylpropanamide], the “CT2” value with human plasma is 9.8 µM. The same compound yielded an IC50 in assay [1] of 15.5 nM.
For `O=C(O)c1cccc(NC(=O)C(Cc2ccccc2)N2CC(=O)N(c3cc(Cl)ccc3-n3cnnn3)CC2=O)c1` (stereo not drawn) [Example 9, 3-(2-(4-(5-Chloro-2-(1H-tetrazol-1-yl)phenyl)-2,5-dioxopiperazin-1-yl)-3-phenylpropanamido)benzoic Acid], in that order: 2.9 µM and 7.8 nM.
`O=C(O)c1ccc(NC(=O)C(Cc2ccccc2)N2CC(=O)N(c3cc(Cl)ccc3-n3ccnn3)CC2=O)cc1` (stereo not drawn) [Example 11, 4-(2-(4-(5-Chloro-2-(1H-1,2,3-triazole-1-yl)phenyl)-2,5-dioxopiperazin-1-yl)-3-phenylpropanamido)benzoic Acid]: in the assay with human plasma, the “CT2” value was 8.1 µM. For the same compound, the IC50 in assay [1] was found to be 24.9 nM.
Consider `CN1Cc2cc(NC(=O)C(Cc3ccccc3)N3CC(=O)N(c4cc(Cl)ccc4-n4cnnn4)CC3=O)ccc2C1=O` (stereo not drawn) [Example 12, 2-(4-(5-Chloro-2-(1H-tetrazol-1-yl)phenyl)-2,5-dioxopiperazin-1-yl)-N-(2-methyl-1-oxoisoindolin-5-yl)-3-phenylpropanamide], for which the “CT2” value in the assay on human plasma is 4.4 µM. This compound gave an IC50 in assay [1] of 22.8 nM.
For `O=C1Cc2cc(NC(=O)C(Cc3ccccc3)N3CC(=O)N(c4cc(Cl)ccc4-n4cnnn4)CC3=O)ccc2N1` (stereo not drawn) [Example 13, 2-(4-(5-Chloro-2-(1H-tetrazol-1-yl)phenyl)-2,5-dioxopiperazin-1-yl)-N-(2-oxoindolin-5-yl)-3-phenylpropanamide], in that order: 4.0 µM and 14.9 nM.
The like results for `O=C(Nc1ccc(N2CCOC2=O)cc1)C(Cc1ccccc1)N1CC(=O)N(c2cc(Cl)ccc2-n2cnnn2)CC1=O` (stereo not drawn) [Example 14, 2-(4-(5-Chloro-2-(1H-tetrazol-1-yl)phenyl)-2,5-dioxopiperazin-1-yl)-N-(4-(2-oxooxazolidin-3-yl)phenyl)-3-phenylpropanamide] were, in that order, 14.3 µM and 44 nM.
For `O=C(Nc1cccc(F)c1)C(Cc1ccccc1)N1CC(=O)N(c2cc(Cl)ccc2-n2cnnn2)CC1=O` (stereo not drawn) [Example 15, 2-(4-(5-Chloro-2-(1H-tetrazol-1-yl)phenyl)-2,5-dioxopiperazine-1-yl)-N-(3-fluorophenyl)-3-phenylpropanamide], in that order: 9.9 µM and 25.1 nM.
For `CC(=O)c1ccc(NC(=O)C(Cc2ccccc2)N2CC(=O)N(c3cc(Cl)ccc3-n3cnnn3)CC2=O)cc1` (stereo not drawn) [Example 17], in the assay with human plasma, the “CT2” value was 11.2 µM. Also, in assay [1], the IC50 turned out to be 34.8 nM.
Take `O=C(Nc1ccc2nccnc2c1)C(Cc1ccccc1)N1CC(=O)N(c2cc(Cl)ccc2-n2cnnn2)CC1=O` (stereo not drawn) [Example 18, 2-(4-(5-Chloro-2-(1H-tetrazol-1-yl)phenyl)-2,5-dioxopiperazin-1-yl)-3-phenyl-N-(quinoxalin-6-yl)propanamide]: the “CT2” value in the assay on human plasma is 7.9 µM. In addition, 20.5 nM corresponded to half-maximal inhibition in assay [1] (IC50).
For `Cn1cc2cc(NC(=O)C(Cc3ccccc3)N3CC(=O)N(c4cc(Cl)ccc4-n4cnnn4)CC3=O)ccc2n1` (stereo not drawn) [Example 19, 2-(4-(5-Chloro-2-(1H-tetrazol-1-yl)phenyl)-2,5-dioxopiperazin-1-yl)-N-(2-methyl-2H-indazol-5-yl)-3-phenylpropanamide], in that order: 3.0 µM and 8.5 nM.
For `CNC(=O)c1ccc(NC(=O)C(Cc2ccccc2)N2CC(=O)N(c3cc(Cl)ccc3-n3cnnn3)CC2=O)cc1F` (stereo not drawn) [Example 20, 4-(2-(4-(5-Chloro-2-(1H-tetrazol-1-yl)phenyl)-2,5-dioxopiperazin-1-yl)-3-phenylpropanamido)-2-fluoro-N-methylbenzamide], in that order: 8.6 µM and 30.5 nM.
Consider `COc1nccc2cc(NC(=O)C(Cc3ccccc3)N3CC(=O)N(c4cc(Cl)ccc4-n4cnnn4)CC3=O)ccc12` (stereo not drawn) [Example 23, 2-(4-(5-Chloro-2-(1H-tetrazol-1-yl)phenyl)-2,5-dioxopiperazin-1-yl)-N-(1-methoxyisoquinolin-6-yl)-3-phenylpropanamide], for which the midpoint of inhibition in assay [1], the IC50, lay at 43.2 nM. This counts as double-digit nanomolar.
The same measure, in the same setting: the figure for `O=C(Nc1ccc2nccnc2c1)C(Cc1ccccc1)N1CC(=O)N(c2cc(Cl)ccc2-n2cc(Cl)nn2)CC1=O` (stereo not drawn) [Example 24, 2-(4-(5-Chloro-2-(4-chloro-1H-1,2,3-triazol-1-yl)phenyl)-2,5-dioxopiperazin-1-yl)-3-phenyl-N-(quinoxalin-6-yl)propanamide] is 23.2 nM.
For the compound `O=C(O)c1ccc(NC(=O)C(Cc2ccccc2)N2CC(=O)N(c3cc(Cl)ccc3-n3cc(Cl)nn3)CC2=O)cc1` (stereo not drawn) [Example 26, 4-(2-(4-(5-Chloro-2-(4-chloro-1H-1,2,3-triazol-1-yl)phenyl)-2,5-dioxopiperazin-1-yl)-3-phenylpropanamido)benzoic Acid], the “CT2” value with human plasma is 7.0 µM. Moreover, in assay [1], the IC50 is 16.9 nM.
For the compound `O=C(Nc1ccn2nccc2c1)C(Cc1ccccc1)N1CC(=O)N(c2cc(Cl)ccc2-n2cc(Cl)nn2)CC1=O` (stereo not drawn) [Example 40, 2-(4-(5-chloro-2-(4-chloro-1H-1,2,3-triazol-1-yl)phenyl)-2,5-dioxopiperazin-1-yl)-3-phenyl-N-(pyrazolo[1.5-a]pyridin-5-yl)propanamide], half-maximal inhibition in assay [1] (IC50) required 44.7 nM.
In turn, `NC(=O)c1ccc(NC(=O)[C@H](Cc2ccccc2)N2CC(=O)N(c3cc(Cl)ccc3-n3cc(Cl)nn3)CC2=O)cc1F` [Example 137, (S)-4-(2-(4-(5-chloro-2-(4-chloro-1H-1,2,3-triazol-1-yl)phenyl)-2,5-dioxopiperazin-1-yl)-3-phenylpropanamido)-2-fluorobenzamide] registered an IC50 in assay [1] of 27.3 nM. Compared with the last compound, the IC50 is about 1.6-fold lower.
